According to article PMC5218480 (PLoS ONE, 2017):

Test system: MV-4-11 cells
Assay: Gene expression microarray analysis (Affymetrix PrimeView) and GSEA
Type: cell-based, human
Design: RFU PODN (11730768_x_at) / Fold change /veh PODN (11730768_x_at) / RFU LINC00158 (11744669_a_at) / Fold change /veh LINC00158 (11744669_a_at) / RFU DUSP10 (11751237_a_at) / Fold change /veh DUSP10 (11751237_a_at) / RFU ID3 (11757404_x_at) / Fold change /veh ID3 (11757404_x_at) / RFU PLEKHG5 (11737974_s_at) / Fold change /veh PLEKHG5 (11737974_s_at) / RFU LRRC4B (11730491_at) / Fold change /veh LRRC4B (11730491_at) / RFU GIMAP4 (11747438_a_at) / Fold change /veh GIMAP4 (11747438_a_at) / RFU KRT8 (11758183_x_at) / Fold change /veh KRT8 (11758183_x_at) / RFU CNN1 (11734310_a_at) / Fold change /veh CNN1 (11734310_a_at) / RFU VPS37D (11726825_at) / Fold change /veh VPS37D (11726825_at) / RFU C10orf10 (11716522_x_at) / Fold change /veh C10orf10 (11716522_x_at) / RFU KIR2DL2 /// KIR2DL4 /// KIR2DL5A /// KIR2DL5B /// KIR2DS1 /// KIR2DS2 /// KIR2DS3 /// KIR2DS4 /// KIR3DL3 /// KIR3DL3 /// KIR3DS1 (11738374_at) / Fold change /veh KIR2DL2 /// KIR2DL4 /// KIR2DL5A /// KIR2DL5B /// KIR2DS1 /// KIR2DS2 /// KIR2DS3 /// KIR2DS4 /// KIR3DL3 /// KIR3DL3 /// KIR3DS1 (11738374_at) / RFU C1QL1 (11718748_at) / Fold change /veh C1QL1 (11718748_at) / RFU TMPRSS4 (11747572_a_at) / Fold change /veh TMPRSS4 (11747572_a_at) / RFU HAMP (11756126_x_at) / Fold change /veh HAMP (11756126_x_at) / RFU RNFT2 (11725882_a_at) / Fold change /veh RNFT2 (11725882_a_at) / RFU NR4A2 (11747474_a_at) / Fold change /veh NR4A2 (11747474_a_at) / RFU ABCC12 (11746883_a_at) / Fold change /veh ABCC12 (11746883_a_at) / RFU TMEM136 (11760407_x_at) / Fold change /veh TMEM136 (11760407_x_at) / RFU CLDN22 /// WWC2 (11732394_at) / Fold change /veh CLDN22 /// WWC2 (11732394_at) / RFU HLA-DPB1 (11760878_x_at) / Fold change /veh HLA-DPB1 (11760878_x_at) / RFU SPINT1 (11716480_a_at) / Fold change /veh SPINT1 (11716480_a_at) / RFU GAP43 (11754022_s_at) / Fold change /veh GAP43 (11754022_s_at) / RFU A4GNT (11735810_at) / Fold change /veh A4GNT (11735810_at) / RFU PRB3 (11715151_x_at) / Fold change /veh PRB3 (11715151_x_at) / RFU TUBB4B (11761932_at) / Fold change /veh TUBB4B (11761932_at) / RFU CAPN14 (11732068_a_at) / Fold change /veh CAPN14 (11732068_a_at) / RFU TMCC2 (11721928_a_at) / Fold change /veh TMCC2 (11721928_a_at) / RFU IRGQ (11745062_a_at) / Fold change /veh IRGQ (11745062_a_at) / RFU FAM174B (11720279_a_at) / Fold change /veh FAM174B (11720279_a_at) / RFU TMPRSS4 (11748680_a_at) / Fold change /veh TMPRSS4 (11748680_a_at) / RFU FAM212B (11763350_a_at) / Fold change /veh FAM212B (11763350_a_at) / RFU PLEKHG5 (11743358_a_at) / Fold change /veh PLEKHG5 (11743358_a_at) / RFU ZSCAN30 (11745921_a_at) / Fold change /veh ZSCAN30 (11745921_a_at) / RFU CMKLR1 (11741424_a_at) / Fold change /veh CMKLR1 (11741424_a_at) / RFU LOC101060620 /// MAPK8IP1 (11723275_at) / Fold change /veh LOC101060620 /// MAPK8IP1 (11723275_at) / RFU SPTSSB (11747773_x_at) / Fold change /veh SPTSSB (11747773_x_at) / RFU PRSS12 (11739890_at) / Fold change /veh PRSS12 (11739890_at) / RFU BIN1 (11741810_x_at) / Fold change /veh BIN1 (11741810_x_at) / RFU WNT11 (11732464_a_at) / Fold change /veh WNT11 (11732464_a_at) / RFU C10orf10 (11716521_a_at) / Fold change /veh C10orf10 (11716521_a_at) / RFU C5orf56 (11738089_at) / Fold change /veh C5orf56 (11738089_at) / RFU CYB561 (11721691_x_at) / Fold change /veh CYB561 (11721691_x_at) / RFU ANKRD19P (11752326_a_at) / Fold change /veh ANKRD19P (11752326_a_at) / RFU OR2T12 /// OR2T33 /// OR2T8 (11738714_s_at) / Fold change /veh OR2T12 /// OR2T33 /// OR2T8 (11738714_s_at) / RFU VCAN (11748164_a_at) / Fold change /veh VCAN (11748164_a_at) / RFU JSRP1 (11732532_at) / Fold change /veh JSRP1 (11732532_at) / RFU KRTAP10-11 (11738290_x_at) / Fold change /veh KRTAP10-11 (11738290_x_at) / RFU MYO3A (11730013_a_at) / Fold change /veh MYO3A (11730013_a_at) / RFU EBF3 (11725865_a_at) / Fold change /veh EBF3 (11725865_a_at) / RFU CAMK2N1 (11719241_x_at) / Fold change /veh CAMK2N1 (11719241_x_at) / RFU C5orf56 (11738088_a_at) / Fold change /veh C5orf56 (11738088_a_at) / RFU OLFML3 (11715873_a_at) / Fold change /veh OLFML3 (11715873_a_at) / RFU LOC100653217 /// NTM (11731650_a_at) / Fold change /veh LOC100653217 /// NTM (11731650_a_at) / RFU MAPK11 (11762145_a_at) / Fold change /veh MAPK11 (11762145_a_at) / RFU FIZ1 (11724087_x_at) / Fold change /veh FIZ1 (11724087_x_at) / RFU OASL (11726364_x_at) / Fold change /veh OASL (11726364_x_at) / RFU SOX15 (11748057_x_at) / Fold change /veh SOX15 (11748057_x_at) / RFU CD79A (11719716_a_at) / Fold change /veh CD79A (11719716_a_at) / RFU HIST1H1D (11736915_at) / Fold change /veh HIST1H1D (11736915_at) / RFU CASKIN2 (11723855_a_at) / Fold change /veh CASKIN2 (11723855_a_at) / RFU LOC730098 (11760151_x_at) / Fold change /veh LOC730098 (11760151_x_at) / RFU OR4N2 (11742367_at) / Fold change /veh OR4N2 (11742367_at) / RFU PRRT2 (11749266_a_at) / Fold change /veh PRRT2 (11749266_a_at) / RFU SNX32 (11753110_a_at) / Fold change /veh SNX32 (11753110_a_at) / RFU CDHR5 (11726645_a_at) / Fold change /veh CDHR5 (11726645_a_at) / RFU RCAN1 (11760418_a_at) / Fold change /veh RCAN1 (11760418_a_at) / RFU FAM167A (11723789_a_at) / Fold change /veh FAM167A (11723789_a_at) / RFU FAM26E (11764081_at) / Fold change /veh FAM26E (11764081_at) / RFU ISYNA1 (11749810_s_at) / Fold change /veh ISYNA1 (11749810_s_at) / RFU ACY1 (11761880_at) / Fold change /veh ACY1 (11761880_at) / RFU 11764098_at / Fold change /veh 11764098_at / RFU SAMD14 (11745864_x_at) / Fold change /veh SAMD14 (11745864_x_at) / RFU NPB (11741838_a_at) / Fold change /veh NPB (11741838_a_at) / RFU TMPRSS6 (11731388_a_at) / Fold change /veh TMPRSS6 (11731388_a_at) / RFU KRTAP10-2 (11738614_at) / Fold change /veh KRTAP10-2 (11738614_at) / RFU ARHGAP8 /// PRR5-ARHGAP8 (11727945_x_at) / Fold change /veh ARHGAP8 /// PRR5-ARHGAP8 (11727945_x_at) / RFU KRTAP5-7 /// NADSYN1 (11734609_at) / Fold change /veh KRTAP5-7 /// NADSYN1 (11734609_at) / RFU RASL12 (11751679_a_at) / Fold change /veh RASL12 (11751679_a_at) / RFU CDKN2B (11736163_a_at) / Fold change /veh CDKN2B (11736163_a_at) / RFU PRF1 (11729649_at) / Fold change /veh PRF1 (11729649_at) / RFU, ZNF638 /// ZNF638-IT1 / Fold change vs veh, ZNF638 /// ZNF638-IT1 / RFU, PANK3 / Fold change vs veh, PANK3 / RFU, SH3YL1 / Fold change vs veh, SH3YL1 / RFU, ZEB2 / Fold change vs veh, ZEB2 / RFU, NRIP1 / Fold change vs veh, NRIP1 / RFU, PTTG1IP / Fold change vs veh, PTTG1IP / RFU, CAPN2 / Fold change vs veh, CAPN2 / RFU, MED14 / Fold change vs veh, MED14 / RFU, SNORA58 / Fold change vs veh, SNORA58 / RFU, C1orf63 / Fold change vs veh, C1orf63 / RFU, LRRFIP1 / Fold change vs veh, LRRFIP1 / RFU, NDUFAF7 / Fold change vs veh, NDUFAF7 / RFU, SLC12A2 / Fold change vs veh, SLC12A2 / RFU, IBTK / Fold change vs veh, IBTK / RFU, ESF1 / Fold change vs veh, ESF1 / Fold change vs veh, TMEM50B / RFU, TAOK1 / Fold change vs veh, TAOK1 / RFU, ACBD3 / Fold change vs veh, ACBD3 / RFU, TMA16 / Fold change vs veh, TMA16 / RFU, RWDD3 / Fold change vs veh, RWDD3 / RFU, BCAT1 / Fold change vs veh, BCAT1 / RFU, EDEM3 / Fold change vs veh, EDEM3 / RFU, TMEM33 / Fold change vs veh, TMEM33 / RFU, WDR75 / Fold change vs veh, WDR75 / RFU, AHCTF1 / Fold change vs veh, AHCTF1 / RFU, TFRC / Fold change vs veh, TFRC / RFU, ZDHHC17 / Fold change vs veh, ZDHHC17 / RFU, NOM1 / Fold change vs veh, NOM1 / RFU, ARL8B / Fold change vs veh, ARL8B / RFU, ZBTB11 / Fold change vs veh, ZBTB11 / RFU, TAMM41 / Fold change vs veh, TAMM41 / RFU, KIAA1704 /// LOC100996395 / Fold change vs veh, KIAA1704 /// LOC100996395 / RFU, ING1 / Fold change vs veh, ING1 / RFU, TRMT61B / Fold change vs veh, TRMT61B / RFU, FUBP3 / Fold change vs veh, FUBP3 / RFU, TP53 / Fold change vs veh, TP53 / RFU, TNKS2 / Fold change vs veh, TNKS2 / RFU, ZFP14 / Fold change vs veh, ZFP14 / RFU, ACTR2 / Fold change vs veh, ACTR2 / RFU, PPP3R1 / Fold change vs veh, PPP3R1 / RFU, PIK3R1 / Fold change vs veh, PIK3R1 / RFU, HNRNPA1 / Fold change vs veh, HNRNPA1 / RFU, RNF170 / Fold change vs veh, RNF170 / RFU, ZNF28 / Fold change vs veh, ZNF28 / RFU, RNGTT / Fold change vs veh, RNGTT / RFU, OGT / Fold change vs veh, OGT / RFU, BRD1 / Fold change vs veh, BRD1 / RFU, MARS / Fold change vs veh, MARS / RFU, ZNF655 / Fold change vs veh, ZNF655 / RFU, FAHD1 / Fold change vs veh, FAHD1 / RFU, BDP1 / Fold change vs veh, BDP1 / RFU, LRRCC1 / Fold change vs veh, LRRCC1 / RFU, ARID1A / Fold change vs veh, ARID1A / RFU, ZNF146 / Fold change vs veh, ZNF146 / RFU, ZNF330 / Fold change vs veh, ZNF330 / RFU, GPN3 / Fold change vs veh, GPN3 / RFU, C9orf123 / Fold change vs veh, C9orf123 / RFU, N4BP2L2 / Fold change vs veh, N4BP2L2 / RFU, ARFIP1 / Fold change vs veh, ARFIP1 / RFU, FAM179B / Fold change vs veh, FAM179B / RFU, BCL10 / Fold change vs veh, BCL10 / RFU, UHRF1BP1L / Fold change vs veh, UHRF1BP1L / RFU, BET1 / Fold change vs veh, BET1 / RFU, CNOT2 / Fold change vs veh, CNOT2 / RFU, ZNF268 / Fold change vs veh, ZNF268 / Fold change vs veh, ZNF507 / RFU, DGCR2 / Fold change vs veh, DGCR2 / RFU, WDSUB1 / Fold change vs veh, WDSUB1 / Fold change vs veh, HSP90B1 /// MIR3652 / RFU, ADSS / Fold change vs veh, ADSS / RFU, GK / Fold change vs veh, GK / RFU, ZNF148 / Fold change vs veh, ZNF148 / RFU, TAF9 / Fold change vs veh, TAF9 / RFU, SLC1A5 / Fold change vs veh, SLC1A5 / RFU, SLMO2 / Fold change vs veh, SLMO2 / RFU, ABCC4 / Fold change vs veh, ABCC4 / RFU, LOC101060439 /// RAP1B / Fold change vs veh, LOC101060439 /// RAP1B / RFU, RFX7 / Fold change vs veh, RFX7 / RFU, GTPBP10 / Fold change vs veh, GTPBP10 / RFU, CNEP1R1 / Fold change vs veh, CNEP1R1 / RFU, BIVM-ERCC5 /// ERCC5 / Fold change vs veh, BIVM-ERCC5 /// ERCC5 / RFU, ILF3 / Fold change vs veh, ILF3 / RFU 11762660_at / Fold change /veh 11762660_at / RFU VCAN (11757783_s_at) / Fold change /veh VCAN (11757783_s_at) / RFU DDX43 (11728927_at) / Fold change /veh DDX43 (11728927_at) / RFU KRT8 (11758188_x_at) / Fold change /veh KRT8 (11758188_x_at) / RFU NKD1 (11759106_at) / Fold change /veh NKD1 (11759106_at) / RFU SRD5A1 (11742802_a_at) / Fold change /veh SRD5A1 (11742802_a_at) / RFU TPSAB1 /// TPSB2 (11721975_s_at) / Fold change /veh TPSAB1 /// TPSB2 (11721975_s_at) / RFU GSTM3 (11746129_a_at) / Fold change /veh GSTM3 (11746129_a_at) / RFU IL23R (11737362_x_at) / Fold change /veh IL23R (11737362_x_at) / RFU TMEM51 (11727254_a_at) / Fold change /veh TMEM51 (11727254_a_at) / RFU PIWIL2 (11732686_x_at) / Fold change /veh PIWIL2 (11732686_x_at) / RFU ORM1 (11744905_x_at) / Fold change /veh ORM1 (11744905_x_at) / RFU CCDC152 (11743942_at) / Fold change /veh CCDC152 (11743942_at) / RFU ECM1 (11717891_a_at) / Fold change /veh ECM1 (11717891_a_at) / RFU IL23R (11748794_a_at) / Fold change /veh IL23R (11748794_a_at) / RFU TNFAIP8L3 (11732012_x_at) / Fold change /veh TNFAIP8L3 (11732012_x_at) / RFU MBOAT4 (11741988_at) / Fold change /veh MBOAT4 (11741988_at) / RFU 11764193_at / Fold change /veh 11764193_at / RFU TMEM53 (11763286_at) / Fold change /veh TMEM53 (11763286_at) / RFU MAGEB2 (11727129_at) / Fold change /veh MAGEB2 (11727129_at) / RFU TMEM200A (11744735_a_at) / Fold change /veh TMEM200A (11744735_a_at) / RFU CCDC152 (11751479_a_at) / Fold change /veh CCDC152 (11751479_a_at) / RFU FAM211A (11726209_a_at) / Fold change /veh FAM211A (11726209_a_at) / RFU RGS16 (11746705_a_at) / Fold change /veh RGS16 (11746705_a_at) / RFU VCAN (11755009_s_at) / Fold change /veh VCAN (11755009_s_at) / RFU RHOB (11743442_s_at) / Fold change /veh RHOB (11743442_s_at) / RFU RGS16 (11720943_a_at) / Fold change /veh RGS16 (11720943_a_at) / RFU RGS16 (11720944_at) / Fold change /veh RGS16 (11720944_at) / RFU, VPS4B / Fold change vs veh, VPS4B / RFU, CREB1 / Fold change vs veh, CREB1 / RFU, DNAJC13 / Fold change vs veh, DNAJC13 / RFU, GNAQ / Fold change vs veh, GNAQ / RFU, CDK5R1 / Fold change vs veh, CDK5R1 / RFU, ZRANB3 / Fold change vs veh, ZRANB3 / RFU, CUL4A / Fold change vs veh, CUL4A / RFU, CCNY / Fold change vs veh, CCNY / RFU, UFL1 / Fold change vs veh, UFL1 / RFU, COG3 / Fold change vs veh, COG3 / RFU, DIAPH2 / Fold change vs veh, DIAPH2 / RFU, SKA2 / Fold change vs veh, SKA2 / RFU, AFF3 / Fold change vs veh, AFF3 / RFU, LMF1 / Fold change vs veh, LMF1 / RFU, IPO11 / Fold change vs veh, IPO11 / RFU, DFFB / Fold change vs veh, DFFB / RFU, FOXP1 / Fold change vs veh, FOXP1 / RFU, CARD8 / Fold change vs veh, CARD8 / RFU, STRN3 / Fold change vs veh, STRN3 / RFU, ADK / Fold change vs veh, ADK / RFU, RASSF2 / Fold change vs veh, RASSF2 / RFU, WIPF1 / Fold change vs veh, WIPF1 / RFU, LARP1B / Fold change vs veh, LARP1B / RFU, RASA1 / Fold change vs veh, RASA1 / RFU, RB1 / Fold change vs veh, RB1 / RFU, PPFIA1 / Fold change vs veh, PPFIA1 / RFU, MAT2A / Fold change vs veh, MAT2A / RFU, CCT5 / Fold change vs veh, CCT5 / RFU, WDR92 / Fold change vs veh, WDR92 / RFU, CUX1 / Fold change vs veh, CUX1 / RFU, TTC7A / Fold change vs veh, TTC7A / RFU, TMEM135 / Fold change vs veh, TMEM135 / RFU, DEPTOR / Fold change vs veh, DEPTOR / RFU, CPM / Fold change vs veh, CPM / RFU, DNAJB6 / Fold change vs veh, DNAJB6 / RFU, CACNA2D3 / Fold change vs veh, CACNA2D3 / RFU, DTX4 / Fold change vs veh, DTX4 / RFU, TFCP2 / Fold change vs veh, TFCP2 / RFU, GMCL1 /// GMCL1P1 / Fold change vs veh, GMCL1 /// GMCL1P1 / RFU, AEBP2 / Fold change vs veh, AEBP2 / RFU, SNHG1 /// SNORD22 /// SNORD25 /// SNORD26 /// SNORD27 /// SNORD28 /// SNORD29 /// SNORD31 / Fold change vs veh, SNHG1 /// SNORD22 /// SNORD25 /// SNORD26 /// SNORD27 /// SNORD28 /// SNORD29 /// SNORD31 / Fold change (Aza/veh), C12orf56 (ProbeSet 11735607_a_at) / Fold change (ACY-1035/veh), C12orf56 (ProbeSet 11735607_a_at) / Fold change (Aza/veh), FGFR1OP (ProbeSet 11751329_s_at) / Fold change (ACY-1035/veh), FGFR1OP (ProbeSet 11751329_s_at) / Fold change (Aza/veh), VPS36 (ProbeSet 11739960_a_at) / Fold change (ACY-1035/veh), VPS36 (ProbeSet 11739960_a_at) / RFU SYPL1 (11715823_x_at) / Fold change /veh SYPL1 (11715823_x_at) / RFU IGFBP7 (11715501_s_at) / Fold change /veh IGFBP7 (11715501_s_at) / RFU REEP3 (11722064_at) / Fold change /veh REEP3 (11722064_at) / RFU IGLL1 (11728026_x_at) / Fold change /veh IGLL1 (11728026_x_at): dose or concentration left out as unconfirmed
Details: MV-4-11 cells, 48 hours

For `Nc1ncn([C@@H]2O[C@H](CO)[C@@H](O)[C@H]2O)c(=O)n1` [azacitidine], the “Fold change /veh MBOAT4 (11741988_at)” value was 1.51.
